# According to patent US20240226211A9, “SEAWEED EXTRACTS, ISOLATED COMPOUNDS, AND METHODS OF TREATMENT” (University of Florida Research Foundation, Incorporated, priority 2017, published 2024):
# What was measured:
# [1] = system: ARE-luciferase reporter (human NQO1-ARE) in LNCaP cells; assay: ARE-luc reporter assay in LNCaP cells; type: cell-based; details: LNCaP cell line
# From the text: The ARE-luciferase reporter construct (ARE-luc) contains the core sequence of human NQO1-ARE1. The mock plasmid (pcDNA3-mRFP) was purchased from Addgene (plasmid 13032). The following plasmids were reported by Zhang et a/.2003 [Zhang, D. D., and Hannink, M. (2003) Distinct cysteine residues in Keap1 are required for Keap1-dependent ubiquitination of Nrf2 and for stabilization of Nrf2 by chemopreventive agents and oxidative stress. Mol. Cell. Biol. 23, 8137-8151]. The Keap1-CBD plasmid carries the entire open reading frame (ORF) of human Keap1 fused to the chitin binding domain (CBD) of the Bacillus circulans chitinase A1 gene upstream of the Keap1 stop codon. […]
# (§1) An ARE-luciferase reporter plasmid and CMV-GFP plasmid (to monitor transfection efficiency) were co-transfected into a human androgen-sensitive prostate cancer cell line, LNCaP (6×10^4 cells/well), and a human neuroblastoma cell line, IMR-32 (3×10^4 cells/well), using Fugene® HD (Roche Diagnostics) in 96-well format. […] After 24 hours of incubation, cells were treated with extracts from Cymopolia barbata, a negative control (DMSO, 1%, v/v), and a positive control ([…] sulforaphane, SF, and tert-butylhydroquinone, tBHQ, respectively.) 24 hours post-treatment, luciferase activity was detected using BriteLite detection reagent (PerkinElmer). […]
# [2] = system: ARE-luciferase reporter (human NQO1-ARE) in IMR-32 cells; assay: ARE-luc reporter assay in IMR-32 cells; type: cell-based; details: IMR-32 cell line
# From the text: The ARE-luciferase reporter construct (ARE-luc) contains the core sequence of human NQO1-ARE1. The mock plasmid (pcDNA3-mRFP) was purchased from Addgene (plasmid 13032). The following plasmids were reported by Zhang et a/.2003 [Zhang, D. D., and Hannink, M. (2003) Distinct cysteine residues in Keap1 are required for Keap1-dependent ubiquitination of Nrf2 and for stabilization of Nrf2 by chemopreventive agents and oxidative stress. Mol. Cell. Biol. 23, 8137-8151]. The Keap1-CBD plasmid carries the entire open reading frame (ORF) of human Keap1 fused to the chitin binding domain (CBD) of the Bacillus circulans chitinase A1 gene upstream of the Keap1 stop codon. Oligonucleotide-directed mutagenesis was used to generate the Keap1-C151S-CBD and Keap1-C288S-CBD plasmids. The HA-Cul3 plasmid was constructed by fusing an N-terminal hemagglutinin (HA) tag with a cDNA sequence coding for amino acids 1-380 of human Cul3 gene. The Gal4-Neh2 expression vector contains the codons for the first 97 amino acids (Neh2 domain) of human Nrf2 fused to the ORF of the Gal4 DNA-binding domain
# as §1, with “format. […] J Biol Chem. 2002; 277:388-394; Lee J M, Hanson J M, Chu W A, Johnson J A. Phosphatidylinositol 3-kinase, not extracellular signal-regulated kinase, regulates activation of the antioxidant-responsive element in IMR-32 human neuroblastoma cells.” for “format.”
# NQO1 = assay: Immunoblot of NQO1 after NAC pre-treatment in IMR-32 cells; type: cell-based, human; details: pre-treated with N-acetylcysteine
# Method: IMR-32 cells were seeded into 6-well plates (7×10^5 cells/well) and incubated at 37° C. for 24 h. The cells were then treated with a solvent control (DMSO, 1%, v/v), isolated compounds, or extracts. After 24 h, cells were lysed in 200 μL of PhosphoSafe buffer (Novagen). Protein concentrations were measured by using a BCA assay kit (Pierce). Equal amounts of total protein were separated using SDS-PAGE (NuPAGE® Novex® 4-12% Bis-Tris Mini gels, Invitrogen) and transferred onto a PVDF membrane. Membranes were blocked overnight with 5% BSA at 4° C. and incubated with indicated primary antibodies for 2 h at room temperature. After washing, the membranes were then incubated with the corresponding secondary antibodies (HRP-linked) for 1 h at room temperature and detected with Supersignal Femto Western Blotting kit (Pierce). For assays in the presence of N-acetylcysteine (NAC), the cells were pretreated with the antioxidant (NAC at 1 mM) for 2 h prior to treatment with the solvent control, isolated compounds, or extracts.
# Nrf2 = assay: RNA interference of Nrf2 in IMR-32 cells, NQO1 induction; type: cell-based, human; details: IMR-32, 48 h RNAi then 24 h treatment
# Method: The media was then carefully aspirated and replaced with a transfection mixture composed of siRNAs (50 nM) and siLentFect™ lipid transfection reagent (Bio-Rad Laboratories) in fresh medium. […] The siRNAs, siGENOME Non-Targeting siRNA Pools and siGENOME SMARTpool (human NFE2L2), were purchased from Dharmacon.
# In order to determine whether NQO1 induction is Nrf2 dependent, IMR-32 cells were transfected with siRNA targeting Nrf2 or non-targeting siRNA. After 48 hours of RNAi of Nrf2, cells were treated with the samples or the vehicle control for 24 hours.
# [3] = system: nitric oxide (NO) production in RAW264.7 cells; assay: NO assay in RAW264.7 cells; type: cell-based, mouse; details: 10 μM Compound 1, IFN-γ
# Method: RAW264.7 cells (2×10^4 cells/well), wild-type (8×10^3 cells/well), Nrf2−/−(7×10^3 cells/well), and Keap1−/−(5×10^3 cells/well) MEF were seeded into 96-well format. Cells were pretreated for 1 h with a solvent control (DMSO, 1%, v/v) or serial dilutions of isolated compounds or extracts before addition of LPS (1 μg/mL) or IFN-γ (10 ng/mL). […] In each case, 50 μL of the media was combined with 50 μL Griess Reagent (Promega). Absorbance was measured at 540 nm and compared with a calibration curve generated using the provided […] standard.
# zebrafish = assay: Phenotypic toxicity in zebrafish; type: in vivo, Danio rerio; details: embryos and adults
# [4] = Toxicity observation in mice after oral gavage; type: in vivo; details: oral gavage 3 consecutive days
# Method: The experiments were approved by the Institutional Animal Care & Use Committee at the University of Florida. Groups of 5-10 wild type male mice (C57BL/6J) were used for each treatment type. The mice were maintained under approved standard conditions. Cymopol (1) and the non-polar extract (NP extract) were dissolved in Chremophor EL (Sigma) containing 10% DMSO and administered via oral gavage for 3 consecutive days, with 24 h between each treatment. […] 12 h following the final treatment, the mice were euthanized in 100% CO2. The tissues were harvested immediately, frozen on dry ice, and kept at −80° C. until analyzed.
# [5] = system: large intestine transcriptome; assay: RNAseq of mouse large intestine; type: in vivo
# From the text: Briefly, 1st strand cDNA is primed by a modified N6 primer (the SMART N6 CDS primer), then base-pairs with these additional nucleotides, creating an extended template. The reverse transcriptase then switches templates and continues transcribing to the end of the oligonucleotide, resulting single-stranded cDNA contains sequences that are complementary to the SMARTer oligonucleotide. The SMARTer anchor sequence and the N6 sequence serve as universal priming sites for DNA amplification by PCR for 10 cycles. […] Libraries were quantitated by Bioanalyzer and qPCR (Kapa Biosystems, catalog number: KK4824). Finally, the libraries were pooled equal molar concentration and sequenced by Illumina 2X75 NextSeq 500.
# In preparation for sequencing, barcoded libraries were sized on the bioanalyzer, quantitated by QUBIT and qPCR (Kapa Biosystems, catalog number: KK4824). Individual samples were pooled equimolarly at 4 nM. […] For RNA seq, 50-100 million reads provided sufficient depth for transcriptome analysis.
# The web-based analysis tool, IPA, was used to further investigate the effect of the cymopols on the large intestine.
# Bacillus cereus = assay: Preliminary antibacterial testing; type: cell-based
compound,measurement,setting,value
"CC(C)=CCC/C(C)=C/Cc1cc(O)c(Br)cc1O [Compound 1, (E)-2-bromo-5-(3,7-dimethylocta-2,6-dien-1-yl)benzene-1,4-diol]",activation of ARE-luc,[1],most active
same,activation of ARE-luc,[2],most active
same,translation of NQO1 after NAC pre-treatment,NQO1,still able to induce the translation of NQO1
same,induction of NQO1 transcript levels in siNrf2 transfected cells,Nrf2,inhibited in siNrf2 transfected cells
same,reduction in levels of NO,[3],> 96%
same,toxicity in zebrafish,zebrafish,demonstrate toxicities at fairly low concentrations
same,apparent toxicity,[4],No apparent toxicity was observed
same,PI3K/Akt/mTOR pathway,"[5]; large intestine RNAseq, IPA",greatly affected
same,Wnt/β-catenin or Sonic Hedgehog signalling,"[5]; large intestine RNAseq, IPA",no notable difference
same,transcript levels of TNFα,"[5]; large intestine, low dose",down-regulated
same,antibacterial activity,Bacillus cereus,inhibited
